Measurements taken from the Kinase Knowledgebase extract (Sharma et al. 2016).
pIC50: −log10 of the molar value.

Biological target: EGFR (UniProt P00533)
Sequence (P00533 whole entry, looked up): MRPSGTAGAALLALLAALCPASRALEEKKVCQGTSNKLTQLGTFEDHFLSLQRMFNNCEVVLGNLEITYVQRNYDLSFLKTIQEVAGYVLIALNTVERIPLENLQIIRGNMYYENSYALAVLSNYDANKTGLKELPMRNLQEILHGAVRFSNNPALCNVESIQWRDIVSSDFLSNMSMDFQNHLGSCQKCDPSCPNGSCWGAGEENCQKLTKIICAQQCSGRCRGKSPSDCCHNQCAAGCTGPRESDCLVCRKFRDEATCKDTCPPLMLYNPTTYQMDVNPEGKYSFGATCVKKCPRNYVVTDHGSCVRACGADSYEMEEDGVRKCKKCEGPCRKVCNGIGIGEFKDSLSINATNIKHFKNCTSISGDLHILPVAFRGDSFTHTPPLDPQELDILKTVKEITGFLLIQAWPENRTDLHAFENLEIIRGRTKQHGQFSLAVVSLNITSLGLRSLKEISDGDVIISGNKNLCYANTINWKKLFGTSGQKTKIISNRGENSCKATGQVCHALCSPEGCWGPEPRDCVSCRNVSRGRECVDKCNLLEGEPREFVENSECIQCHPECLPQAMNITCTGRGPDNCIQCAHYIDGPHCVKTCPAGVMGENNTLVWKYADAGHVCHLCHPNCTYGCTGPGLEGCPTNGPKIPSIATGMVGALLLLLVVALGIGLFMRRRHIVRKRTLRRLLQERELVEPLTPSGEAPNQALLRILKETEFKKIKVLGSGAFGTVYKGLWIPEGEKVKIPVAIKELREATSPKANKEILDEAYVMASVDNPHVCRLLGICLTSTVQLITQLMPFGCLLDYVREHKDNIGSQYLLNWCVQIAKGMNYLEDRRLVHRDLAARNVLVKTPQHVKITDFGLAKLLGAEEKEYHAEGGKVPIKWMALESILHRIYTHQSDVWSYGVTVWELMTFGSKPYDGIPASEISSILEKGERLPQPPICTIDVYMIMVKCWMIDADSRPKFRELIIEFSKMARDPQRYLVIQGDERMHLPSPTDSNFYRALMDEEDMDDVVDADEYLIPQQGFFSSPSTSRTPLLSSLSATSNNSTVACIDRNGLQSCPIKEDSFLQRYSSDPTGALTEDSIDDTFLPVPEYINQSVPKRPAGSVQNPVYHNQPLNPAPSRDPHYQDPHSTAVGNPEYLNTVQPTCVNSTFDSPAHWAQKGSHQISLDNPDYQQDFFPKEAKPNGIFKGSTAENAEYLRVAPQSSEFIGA

pIC50	Structure (SMILES)
≥ 6.00	COc1cc2c(NS(=O)(=O)c3ccc(Sc4ccccc4)s3)ncnc2cc1OCCCN(C)C
≥ 6.00	COc1cc2c(NS(=O)(=O)c3ccc(Cl)cc3)ncnc2cc1OCCN1CCOCC1
≥ 6.00	COc1ccc(S(=O)(=O)Nc2ncnc3cc(OC4CCN(C)CC4)c(OC)cc23)cc1
≥ 6.00	COc1cc2c(NS(=O)(=O)c3ccccc3Cl)ncnc2cc1OCCN1CCOCC1
≥ 6.00	COc1cc2c(NS(=O)(=O)c3ccc(Cl)cc3)ncnc2cc1OCCN1CCCCC1
≥ 6.00	COc1cc2c(NS(=O)(=O)Cc3ccccc3)ncnc2cc1OCCCN(C)C
≥ 6.00	COc1cc2c(NS(=O)(=O)c3ccc(C(C)(C)C)cc3)ncnc2cc1OCCCN(C)C
≥ 6.00	CCN(CC)CCOc1cc2ncnc(NS(=O)(=O)c3cccc4cccnc34)c2cc1OC
≥ 6.00	COc1cc2c(NS(=O)(=O)c3ccccc3)ncnc2cc1OCCN1CCCCC1
≥ 6.00	COc1cc2c(NS(=O)(=O)c3cc(Cl)c(Cl)s3)ncnc2cc1OCCN1CCN(C)CC1
≥ 6.00	COc1cc2c(NS(=O)(=O)c3cccc(Br)c3)ncnc2cc1OCCN1CCN(C)CC1
≥ 6.00	COc1cc2c(NS(=O)(=O)c3cccc(Cl)c3)ncnc2cc1OCCN1CCOCC1
≥ 6.00	CCN(CC)CCOc1cc2ncnc(NS(=O)(=O)c3cc(OC)ccc3OC)c2cc1OC
≥ 6.00	COc1cc2c(NS(=O)(=O)c3ccccc3Br)ncnc2cc1OCCCN(C)C
≥ 6.00	CCN(CC)CCOc1cc2ncnc(NS(=O)(=O)c3ccc(Cl)cc3)c2cc1OC
≥ 6.00	COc1cc2c(NS(=O)(=O)c3cccc(Cl)c3Cl)ncnc2cc1OCCN1CCOCC1
≥ 6.00	COc1cc2c(NS(=O)(=O)c3ccccc3)ncnc2cc1OCCCN1CCOCC1
≥ 6.00	COc1cc2c(NS(=O)(=O)c3cccc(Br)c3)ncnc2cc1OCCN1CCOCC1
≥ 6.00	COc1cc2c(NS(=O)(=O)c3cccc(Cl)c3)ncnc2cc1OCCCN(C)C
≥ 6.00	COc1cc2c(NS(=O)(=O)c3ccc(F)cc3)ncnc2cc1OCCN1CCN(C)CC1
≥ 6.00	COc1cc2c(NS(=O)(=O)c3cccc(Br)c3)ncnc2cc1OC1CCN(C)CC1
≥ 6.00	COc1cc2c(NS(=O)(=O)c3ccc(Br)cc3)ncnc2cc1OC1CCN(C)CC1
≥ 6.00	CCN(CC)CCOc1cc2ncnc(NS(=O)(=O)c3ccccc3)c2cc1OC
≥ 6.00	COc1cc2c(NS(=O)(=O)c3ccc(F)cc3)ncnc2cc1OCCN1CCOCC1
≥ 6.00	COc1cc2c(NS(=O)(=O)c3ccc4ccccc4c3)ncnc2cc1OCCN1CCOCC1

pIC50	Structure (SMILES)
≥ 6.00	CCN(CC)CCOc1cc2ncnc(NS(=O)(=O)c3cccc(Br)c3)c2cc1OC
≥ 6.00	COc1cc2c(NS(=O)(=O)c3ccccc3C)ncnc2cc1OCCN1CCN(C)CC1
≥ 6.00	COc1cc2c(NS(=O)(=O)c3ccc(Cl)s3)ncnc2cc1OCCN1CCOCC1
≥ 6.00	COc1cc2c(NS(=O)(=O)c3cccc(Br)c3)ncnc2cc1OCCN1CCCCC1
≥ 6.00	COc1cc2c(NS(=O)(=O)c3ccc(C(C)(C)C)cc3)ncnc2cc1OCCN1CCOCC1
≥ 6.00	COc1cc2c(NS(=O)(=O)c3ccccc3Br)ncnc2cc1OCCCN1CCOCC1
≥ 6.00	CCN(CC)CCOc1cc2ncnc(NS(=O)(=O)c3ccc(OC(F)(F)F)cc3)c2cc1OC
≥ 6.00	COc1cc2c(NS(=O)(=O)c3ccc(Cl)s3)ncnc2cc1OC1CCN(C)CC1
≥ 6.00	COc1ccc(S(=O)(=O)Nc2ncnc3cc(OC4CCN(C)CC4)c(OC)cc23)cc1OC
≥ 6.00	COc1cc2c(NS(=O)(=O)c3sc(C)nc3C)ncnc2cc1OCCN1CCOCC1
≥ 6.00	CCN(CC)CCOc1cc2ncnc(NS(=O)(=O)c3ccc(Br)cc3)c2cc1OC
≥ 6.00	COc1cc2c(NS(=O)(=O)c3ccc(C(C)(C)C)cc3)ncnc2cc1OCCN1CCN(C)CC1
≥ 6.00	COc1ccc(S(=O)(=O)Nc2ncnc3cc(OCCCN4CCOCC4)c(OC)cc23)cc1
≥ 6.00	COc1cc2c(NS(=O)(=O)c3ccc(F)cc3)ncnc2cc1OCCCN(C)C
≥ 6.00	COc1cc2c(NS(=O)(=O)c3cc(Cl)cc(Cl)c3)ncnc2cc1OCCN1CCOCC1
≥ 6.00	CCN(CC)CCOc1cc2ncnc(NS(=O)(=O)c3cccc(Cl)c3)c2cc1OC
≥ 6.00	COc1cc2c(NS(=O)(=O)c3ccc4ccccc4c3)ncnc2cc1OC1CCN(C)CC1
≥ 6.00	COc1cc2c(NS(=O)(=O)c3ccc4ccccc4c3)ncnc2cc1OCCCN(C)C
≥ 6.00	COc1cc2c(NS(=O)(=O)c3c(C)cc(C)cc3C)ncnc2cc1OCCCN(C)C
≥ 6.00	COc1cc2c(NS(=O)(=O)c3cn(C)cn3)ncnc2cc1OCCN1CCOCC1
≥ 6.00	COc1cc2c(NS(=O)(=O)c3ccccc3)ncnc2cc1OC1CCN(C)CC1
≥ 6.00	CCN(CC)CCOc1cc2ncnc(NS(=O)(=O)c3cn(C)cn3)c2cc1OC
≥ 6.00	COc1cc2c(NS(=O)(=O)c3ccc(Sc4cccs4)s3)ncnc2cc1OC1CCN(C)CC1
≥ 6.00	COc1cc2c(NS(=O)(=O)c3ccc(Cl)cc3)ncnc2cc1OCCCN(C)C
